Experimental data reported in patent publication US20150086986A1, “METHOD TO PREDICT THE PRESENCE OF INFLAMMATION OR ITACONIC ACID, IRG1 AND/OR PROTEIN IRG1 IN A SUBJECT AND PHARMACEUTICAL COMPOSITION FOR TREATING OR PREVENTING INFLAMMATION” (priority 2011, published 2015).

Tests used:
[1] = test system: Salmonella enterica serovar Typhimurium; assay: S. enterica growth in liquid minimal medium with acetate as unique carbon source; assay type: cell-based
Procedure: To directly investigate the effect of itaconic acid on bacterial replication, S. enterica was grown in liquid minimal medium supplemented with acetate as the unique carbon source and various concentrations of itaconic acid. […] S. enterica was grown in liquid medium with acetate as unique carbon source in the presence of increasing concentrations of itaconic acid (5, 10, 50, 100 mM). The optical density (OD) was measured every hour to record the bacterial growth. Curves are calculated in % relative to time 0 and represent the mean of three independent experiments.

[2] = test system: bacterial isocytrate lyase (ICL); conditions: literature reports; cited from earlier work
Streptococcus pyogenes = assay: Bacterial phagocytosis and killing assay in siRNA-transfected RAW264.7 macrophages infected with S. pyogenes; assay type: cell-based; conditions: streptococci compared with Salmonella
Procedure: Bacterial phagocytosis and killing assay were conducted to test the influence of the uptake of S. pyogenes by transfected (siRNA IRG1) mouse macrophages (RAW264.7 cell line) after 1 h, 2 h and 4 h of incubation.
Transfected RAW264.7 macrophages (with unspecific siRNA or IRG1 specific siRNA) were infected with Streptococcus pyogenes strain A20 at a multiplicity of infection (MOI) of 10:1 (10 bacteria per macrophage) and incubated for 1 h at 37° C., 5% CO2. Macrophages were then washed with sterile PBS, resuspended in complete medium containing […] gentamicin to kill non ingested bacteria and further incubated for 2 h at 37° C., 5% CO2. Macrophages were then disrupted with dH2O to release intracellular bacteria (this was considered time 0 h relative to gentamicin treatment) or 1, 2, 4 h later (this was considered time 1, 2, 4 h relative to gentamicin treatment) and the amount of viable intracellular bacteria was determined by plating on blood agar.
RAW264.7 cells were transfected with either siRNA specific for IRG1 or with siRNA Ctr. […] Macrophages were then disrupted with H2O to release intracellular bacteria and the amount of viable intracellular bacteria was determined by plating on blood agar. […]

[3] = Cis-aconitate decarboxylase (CAD) activity assay of purified Flag-IRG1; assay type: biochemical, Mus musculus; conditions: peak activity fraction; 1 mM cis-aconitate, 30° C., 40 min, pH 7.1
Procedure: HEK293T cells were extracted 48 hours after transfection by scraping them into a lysis buffer containing 25 mM Hepes, pH 7.1 and 1× protease inhibitor cocktail (Roche). After two freeze/thaw cycles, cell extracts were incubated for 30 min on ice in the presence of DNAse I (200 U/ml extract; Roche Applied Science) and 10 mM MgSO4. The crude cell extracts were centrifuged for 5 min at 16000×g (4° C.) and pellets were resuspended in lysis buffer for SDS-PAGE analysis. Flag-IRG1 was purified from the supernatant using the Flag®M purification kit, according to the manufacturer's instructions (Sigma Aldrich). […] Protein concentration was measured by the Bradford assay using Bradford reagent (Bio-Rad).
Cis-aconitate decarboxylase activity was measured by incubating cell extracts or purified protein fractions (10 μl) at 30° C. and for 40 min in a reaction mixture containing 25 mM Hepes, pH 7.1 and 1 mM cis-aconitate in a total volume of 100 μl. […] The dry residue was derivatized and itaconic acid was quantified by GC-MS as described below. Itaconic acid concentrations were calculated by comparing the corresponding GC/MS signals obtained in samples with the one obtained after injection of known amounts of itaconic acid standards. […]
Cis-aconitate decarboxylase activity was measured in cell extracts and purification fractions. […]

Compound	itaconic acid concentration with significant effect on growth inhibition ([1]; 5, 10, 50, 100 mM tested, OD every hour)	bacterial growth inhibition ([1]; increasing concentrations of itaconic acid)	inhibition of isocitrate lyase [2]	antimicrobial effect of itaconic acid (Streptococcus pyogenes)	CAD specific activity [3]
C=C(CC(=O)O)C(=O)O [itaconic acid]	higher than 10 mM	dose-dependent growth inhibition	inhibits	less pronounced in streptococci than in Salmonella	
Flag-IRG1: FLAG-tagged IRG1 protein purified from HEK293T cells transfected with a pCMV6-Entry-IRG1 expression plasmid					about 40 nmol min^−1 mg protein^−1
